Assay results reported in patent US20260356856A1, “KRAS G12S AND G12C INHIBITORS” (MIRATI THERAPEUTICS, INC., priority 2023, published 2026).

Assays:
KRas G12C = molecular target: T1, KRas G12C (Homo sapiens, UniProt P01116, G12C); assay: KRas binding assay, TR-FRET displacement of Cy5 labelled tracer; settings: 60-minute incubation at room temperature, 1% DMSO, pH 7.5
T1 construct: Biotinylated KRas (corresponding to amino acids 1-169, produced at Accelegan Inc.); biotin (biotinylated); purchased Accelegan Inc
Method in brief: (§1)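 Biotinylated KRas (residues 1-169) was incubated with tracer, terbium-streptavidin and compound at 1% DMSO final in 50 mM HEPES pH 7.5 containing 5 mM MgCl2, 0.005% Tween-20 and 1 mM DTT. The plate was read after 60 min at room temperature, and percent-of-control data were fit to a 4-parameter IC50 equation.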

KRas G12S = molecular target: T2, KRas G12S (Homo sapiens, UniProt P01116, G12S); assay: as above; settings: 60-minute incubation at room temperature, 1% DMSO, pH 7.5
T2 construct: Biotinylated KRas (corresponding to amino acids 1-169, produced at Accelegan Inc.); biotin (biotinylated); purchased Accelegan Inc
Method in brief: as §1

KRas WT = molecular target: T3, KRas WT (Homo sapiens, UniProt P01116); assay: as above; settings: 60-minute incubation at room temperature, 1% DMSO, pH 7.5
T3 construct: Biotinylated KRas (corresponding to amino acids 1-169, produced at Accelegan Inc.); biotin (biotinylated); purchased Accelegan Inc
Method in brief: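 KRas aa 1-169, biotinylated; Tb-streptavidin donor; 1% DMSO final. Buffer: HEPES 50 mM (pH 7.5), MgCl2 5 mM, DTT 1 mM, Tween-20 0.005%. 60 min, RT. IC50 from 4-parameter fit of POC.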

[1] = molecular target: T4, KRas-mediated phosphorylation of ERK in MKN1 cells (Homo sapiens, UniProt P01116); assay: Inhibition of KRas-mediated phosphorylation of ERK (HTRF), MKN1 cells; format: cell-based; settings: MKN1 cells (KRas WT); HTRF pERK; 3 h incubation
T4 construct: pERK HTRF read-out
Description: Inhibition of KRas Phosphorylation of ERK (HTRF) by Exemplary Compounds of Formula (Ia) or (Ib)
Cisbio HTRF Advanced pERK Assay Catalog #64AERPEH • Cells: MKN1, PSN1 • Procedure: • 1. Day 1: Seed 6,000 cells/well −25 μl/well in 384-well white solid bottom plate; RPM1_10% FBS. Incubate overnight at 37 °C/5% CO2. • 2.

[2] = molecular target: T5, KRas-mediated phosphorylation of ERK in A549 cells (Homo sapiens, UniProt P01116, G12S); assay: Inhibition of KRas-mediated phosphorylation of ERK (HTRF), A549 cells; format: cell-based; settings: HTRF pERK, 3 h incubation
T5 construct: pERK HTRF read-out

[3] = molecular target: T6, KRas-mediated phosphorylation of ERK in H358 cells (Homo sapiens, UniProt P01116, G12C); assay: Inhibition of KRas-mediated phosphorylation of ERK (HTRF), H358 cells; format: cell-based; settings: HTRF pERK, 3 h incubation
T6 construct: pERK HTRF read-out
T6 sequence (P01116 1-188 isoform P01116-2 G12C): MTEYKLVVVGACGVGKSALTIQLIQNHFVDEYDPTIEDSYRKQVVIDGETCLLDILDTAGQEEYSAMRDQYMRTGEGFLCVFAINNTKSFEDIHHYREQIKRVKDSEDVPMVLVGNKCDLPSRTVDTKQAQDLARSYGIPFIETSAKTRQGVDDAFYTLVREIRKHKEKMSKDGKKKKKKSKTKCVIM

T1 sequence (P01116 1-169 isoform P01116-2 G12C): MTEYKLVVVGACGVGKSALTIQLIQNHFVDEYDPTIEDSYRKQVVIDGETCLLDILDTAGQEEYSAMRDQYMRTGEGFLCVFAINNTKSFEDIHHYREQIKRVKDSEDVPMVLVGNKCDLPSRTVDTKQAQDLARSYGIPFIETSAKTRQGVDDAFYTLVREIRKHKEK
T4 sequence (P01116 1-188 isoform P01116-2): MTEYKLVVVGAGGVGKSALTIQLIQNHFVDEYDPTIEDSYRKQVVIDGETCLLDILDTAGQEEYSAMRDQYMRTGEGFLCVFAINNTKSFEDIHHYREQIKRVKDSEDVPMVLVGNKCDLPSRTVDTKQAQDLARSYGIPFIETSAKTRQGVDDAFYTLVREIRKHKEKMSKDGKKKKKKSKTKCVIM
T2 sequence (P01116 1-169 isoform P01116-2 G12S): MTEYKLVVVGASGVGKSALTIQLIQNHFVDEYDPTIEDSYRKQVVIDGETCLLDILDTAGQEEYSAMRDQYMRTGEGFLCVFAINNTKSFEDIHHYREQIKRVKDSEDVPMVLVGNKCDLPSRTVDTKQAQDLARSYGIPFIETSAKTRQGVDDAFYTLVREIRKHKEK
T3 sequence (P01116 1-169 isoform P01116-2): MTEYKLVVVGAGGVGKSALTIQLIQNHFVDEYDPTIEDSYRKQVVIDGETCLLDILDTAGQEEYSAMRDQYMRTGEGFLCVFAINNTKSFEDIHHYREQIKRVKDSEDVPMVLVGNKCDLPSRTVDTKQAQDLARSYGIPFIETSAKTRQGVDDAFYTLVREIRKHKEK
T5 sequence (P01116 1-188 isoform P01116-2 G12S): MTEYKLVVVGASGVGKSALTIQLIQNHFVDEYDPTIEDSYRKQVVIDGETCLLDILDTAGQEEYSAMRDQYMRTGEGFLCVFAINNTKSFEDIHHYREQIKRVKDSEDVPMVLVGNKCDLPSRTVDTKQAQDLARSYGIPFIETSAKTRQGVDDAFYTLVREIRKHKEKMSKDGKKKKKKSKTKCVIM

Row | Structure (SMILES) | IC50 (KRas G12C) | IC50 (KRas G12S) | IC50 (KRas WT) | IC50 [1] | IC50 [2] | IC50 [3]
1 | CCc1c(F)ccc2cc(O)cc(-c3ncc4c(N5CCC(C(=O)n6cccn6)CC5)nc(OC[C@@]56CCCN5C[C@H](F)C6)nc4c3F)c12 [Example 4, (1-(7-(8-ethyl-7-fluoro-3-hydroxynaphthalen-1-yl)-8-fluoro-2-(((2R,7aS)-2-fluorotetrahydro-1H-pyrrolizin-7a(5H)-yl)methoxy)pyrido[4,3-d]pyrimidin-4-yl)piperidin-4-yl)(1H-pyrazol-1-yl)methanone] | 22 nM | 9 nM | 51 nM | 2040 nM | 69 nM | 5440 nM
2 | CCc1c(F)ccc2cc(O)cc(-c3ncc4c(N5CC[C@@H]6[C@H](C5)[C@@H]6C(=O)n5ccc(C)n5)nc(OC[C@@]56CCCN5C[C@H](F)C6)nc4c3F)c12 [Example 157, ((1S,6R,7R)-3-(7-(8-ethyl-7-fluoro-3-hydroxynaphthalen-1-yl)-8-fluoro-2-(((2R,7aS)-2-fluorotetrahydro-1H-pyrrolizin-7a(5H)-yl)methoxy)pyrido[4,3-d]pyrimidin-4-yl)-3-azabicyclo[4.1.0]heptan-7-yl)(3-methyl-1H-pyrazol-1-yl)methanone] | 84 nM | 122 nM | 32 nM | 955 nM | 7590 nM | 2110 nM
3 | CCc1c(F)ccc2cc(O)cc(-c3ncc4c(N5CCC(C(=O)n6ccc(C)n6)CC5)nc(OC[C@@]56CCCN5C/C(=C\F)C6)nc4c3F)c12 [Example 70, (S,Z)-(1-(7-(8-ethyl-7-fluoro-3-hydroxynaphthalen-1-yl)-8-fluoro-2-((2-(fluoromethylene)tetrahydro-1H-pyrrolizin-7a(5H)-yl)methoxy)pyrido[4,3-d]pyrimidin-4-yl)piperidin-4-yl)(3-methyl-1H-pyrazol-1-yl)methanone] | 31 nM | 17 nM | 27 nM | 5100 nM | 85 nM | 7290 nM
4 | CCc1c(F)ccc2cc(O)cc(-c3ncc4c(N(C)CCNC(=O)n5ccnn5)nc(OC[C@@]56CCCN5C[C@H](F)C6)nc4c3F)c12 [Example 250, N-(2-((7-(8-ethyl-7-fluoro-3-hydroxynaphthalen-1-yl)-8-fluoro-2-(((2R,7aS)-2-fluorotetrahydro-1H-pyrrolizin-7a(5H)-yl)methoxy)pyrido[4,3-d]pyrimidin-4-yl)(methyl)amino)ethyl)-1H-1,2,3-triazole-1-carboxamide] | < 2 nM | 34 nM | 37 nM | 357 nM | 1680 nM | 8 nM
5 | N#Cc1c(N)sc2c(F)ccc(-c3c(Cl)cc4c(N5CCN(S(=O)(=O)n6cncn6)CC5)nc(OC[C@@]56CCCN5C[C@H](F)C6)nc4c3F)c12 [Example 186, 4-(4-(4-((1H-1,2,4-triazol-1-yl)sulfonyl)piperazin-1-yl)-6-chloro-8-fluoro-2-(((2R,7aS)-2-fluorotetrahydro-1H-pyrrolizin-7a(5H)-yl)methoxy)quinazolin-7-yl)-2-amino-7-fluorobenzo[b]thiophene-3-carbonitrile] | 136 nM | 156 nM | 32 nM | 184 nM | 2830 nM | 1120 nM
6 | CN(C(=O)C1CCN(c2nc(OC[C@@]34CCCN3C[C@H](F)C4)nc3c(F)c(-c4ccc(F)c5sc(N)c(C#N)c45)c(Cl)cc23)CC1)c1cccnc1 [Example 289, 1-(7-(2-amino-3-cyano-7-fluorobenzo[b]thiophen-4-yl)-6-chloro-8-fluoro-2-(((2R,7aS)-2-fluorotetrahydro-1H-pyrrolizin-7a(5H)-yl)methoxy)quinazolin-4-yl)-N-methyl-N-(pyridin-3-yl)piperidine-4-carboxamide] | 10 nM | 18 nM | 5 nM | 33 nM | 271 nM | 81 nM

Second part, the compound after the results:

Row | IC50 (KRas G12C) | IC50 (KRas G12S) | IC50 (KRas WT) | IC50 [1] | IC50 [2] | IC50 [3] | Structure (SMILES)
7 | 16 nM | 43 nM | 142 nM | 264 nM | 113 nM | 20 nM | N#Cc1c(N)sc2c(F)ccc(-c3c(Cl)cc4c(N5CCC(C(=O)Oc6ccc(Cl)cc6)CC5)nc(OC[C@@]56CCCN5C[C@H](F)C6)nc4c3F)c12 [Example 301, 4-chlorophenyl 1-(7-(2-amino-3-cyano-7-fluorobenzo[b]thiophen-4-yl)-6-chloro-8-fluoro-2-(((2R,7aS)-2-fluorotetrahydro-1H-pyrrolizin-7a(5H)-yl)methoxy)quinazolin-4-yl)piperidine-4-carboxylate]
8 | 12 nM | 8 nM | 6 nM | 15 nM | 148 nM | 148 nM | Cn1ccc(COC(=O)C2CCN(c3nc(OC[C@@]45CCCN4C[C@H](F)C5)nc4c(F)c(-c5ccc(F)c6sc(N)c(C#N)c56)c(Cl)cc34)CC2)n1 [Example 245, (1-methyl-1H-pyrazol-3-yl)methyl 1-(7-(2-amino-3-cyano-7-fluorobenzo[b]thiophen-4-yl)-6-chloro-8-fluoro-2-(((2R,7aS)-2-fluorotetrahydro-1H-pyrrolizin-7a(5H)-yl)methoxy)quinazolin-4-yl)piperidine-4-carboxylate]
9 | 209 nM | 153 nM | 160 nM | 258 nM | 336 nM | 449 nM | CC(C)(C)c1ccn(C(=O)C2CCCN(c3nc(OC[C@@]45CCCN4C[C@H](F)C5)nc4c(F)c(-c5ccc(F)c6sc(N)c(C#N)c56)c(Cl)cc34)CC2)n1 (stereo partly drawn) [Example 220, 2-amino-4-(4-(4-(3-(tert-butyl)-1H-pyrazole-1-carbonyl)azepan-1-yl)-6-chloro-8-fluoro-2-(((2R,7aS)-2-fluorotetrahydro-1H-pyrrolizin-7a(5H)-yl)methoxy)quinazolin-7-yl)-7-fluorobenzo[b]thiophene-3-carbonitrile]
10 | 13 nM | 8 nM | 24 nM | 199 nM | 27 nM | 43 nM | N#Cc1c(N)sc2c(F)ccc(-c3c(Cl)cc4c(N5CCCC(C(=O)n6ccc(C7CC7)n6)CC5)nc(OC[C@@]56CCCN5C[C@H](F)C6)nc4c3F)c12 (stereo partly drawn) [Example 189, 2-amino-4-(6-chloro-4-(4-(3-cyclopropyl-1H-pyrazole-1-carbonyl)azepan-1-yl)-8-fluoro-2-(((2R,7aS)-2-fluorotetrahydro-1H-pyrrolizin-7a(5H)-yl)methoxy)quinazolin-7-yl)-7-fluorobenzo[b]thiophene-3-carbonitrile]
11 | 17 nM | 14 nM | 9 nM | 102 nM | 107 nM | 428 nM | CCc1c(F)ccc2cc(O)cc(-c3ncc4c(NCC5CC(C(=O)N(C)C(C)=O)C5)nc(OC[C@@]56CCCN5C[C@H](F)C6)nc4c3F)c12 (stereo partly drawn) [Example 280, N-acetyl-3-(((7-(8-ethyl-7-fluoro-3-hydroxynaphthalen-1-yl)-8-fluoro-2-(((2R,7aS)-2-fluorotetrahydro-1H-pyrrolizin-7a(5H)-yl)methoxy)pyrido[4,3-d]pyrimidin-4-yl)amino)methyl)-N-methylcyclobutane-1-carboxamide]
12 | 5 nM | 8 nM | 103 nM | 2210 nM | 50 nM | 999 nM | CCc1c(F)ccc2cc(O)cc(-c3ncc4c(N(CC)CCCC(=O)n5ccc(C)n5)nc(OC[C@@]56CCCN5C[C@H](F)C6)nc4c3F)c12 [Example 164, 4-(ethyl(7-(8-ethyl-7-fluoro-3-hydroxynaphthalen-1-yl)-8-fluoro-2-(((2R,7aS)-2-fluorotetrahydro-1H-pyrrolizin-7a(5H)-yl)methoxy)pyrido[4,3-d]pyrimidin-4-yl)amino)-1-(3-methyl-1H-pyrazol-1-yl) butan-1-one]
13 | 94 nM | 29 nM | 528 nM | 3050 nM | 326 nM | 5100 nM | CCc1c(F)ccc2cc(O)cc(-c3ncc4c(N5CCCC(C(=O)n6ccc(C)n6)CC5)nc(OCC5(CN(C)C)CC5)nc4c3F)c12 (stereo not drawn) [Example 167, (1-(2-((1-((dimethylamino)methyl)cyclopropyl)methoxy)-7-(8-ethyl-7-fluoro-3-hydroxynaphthalen-1-yl)-8-fluoropyrido[4,3-d]pyrimidin-4-yl)azepan-4-yl)(3-methyl-1H-pyrazol-1-yl)methanone]
14 | 8 nM | < 2 nM | < 2 nM | 27 nM | 372 nM | 486 nM | CCc1c(F)ccc2cc(O)cc(-c3ncc4c(N5CC6CCC(C5)C6C(=O)n5cccn5)nc(OC[C@@]56CCCN5C[C@H](F)C6)nc4c3F)c12 (stereo partly drawn) [Example 59, ((1R,5S,8S)-3-(7-(8-ethyl-7-fluoro-3-hydroxynaphthalen-1-yl)-8-fluoro-2-(((2R,7aS)-2-fluorotetrahydro-1H-pyrrolizin-7a(5H)-yl)methoxy)pyrido[4,3-d]pyrimidin-4-yl)-3-azabicyclo[3.2.1]octan-8-yl)(1H-pyrazol-1-yl)methanone]
